Laboratory results as given in patent publication EP0062018A1, “Novel phenyl-piperidines” (priority 1981, dated 1982).
Counter-ions that a name gives are not always drawn. Like-named read-outs stand apart in the source and are kept apart here.

Legend:
[1] = tested on: rabbit right ventricle papillary muscle; experiment: Positive inotropic effect (contractility) in isolated electrically driven papillary muscle; type: cell-based; details: Oryctolagus cuniculus; for Emax: papillary muscle, read-out: Tmax ISA; for EC50: rabbit right ventricle papillary muscle, read-out: Tmax EC50
Method: (§1) Pharmacological studies on cardiac effects on heart frequency and contractility in isolated right atria and papillary muscle from rabbit. Rabbits with an average weight of 2.5 kg were killed by a blow and the hearts were rapidly removed. The right atria and a papillary muscle from the right ventricle were isolated and set up to contract isometrically in an organ bath. The bath contained 50 ml Krebs-buffer (pH 7.4) and the temperature was kept at 32°C. The contractions were measured by means of a force displacement transducer (Grass Model FT03) coupled to a Grass Model 7 Polygraph with a […] (Grass Model 7PIF). The spontaneously beating right atria was stretched to a resting tension high enough to measure the contractions and to trigger a tachograph for registration of the frequency. The papillary muscle was stretched to the length at which maximal tension was developed and was driven at a frequency of 1 Hz by a current 20 per cent above treshold and with a duration of 5 msec. After 60 min. equilibration, dose response curves to cumulative concentrations of isoprenaline were constructed for chronotropic effect, i.e. increase in frequency (atria) and positive inotropic effect, i.e. increase in contractility (papillary muscle). After wash-out similar curves were constructed for the compounds according to the invention. The positive inotropic agent dopamine was included for comparison. In order to establish the maximal chronotropic and inotropic responses of the preparations, isoprenaline was added immediately after the maximal concentrations of the compounds. The maximal effects of the compounds compared with the maximal effect of isoprenaline are expressed as intrinsic activity (ISA).

rabbit right atria = experiment: Chronotropic effect (heart frequency) in isolated spontaneously beating right atria; type: cell-based; details: for Emax / EC50: Oryctolagus cuniculus, rabbit right atria, heart rate; for Emax: read-out: HR ISA; for EC50: cumulative concentrations, Krebs-buffer pH 7.4, 32°C, read-out: HR EC50; for positive chronotropic effect: result in words, isolated rabbit right atria
Method: as §1

[2] = intrinsic activity: maximal effect compared with maximal effect of isoprenaline
[3] = driven at 1 Hz, Krebs-buffer pH 7.4, 32°C
[4] = Tested after β-blockade, intrinsic activity vs isoprenaline

CCCCCN1CCCC(c2cc(O)cc(O)c2)C1 (centres unmarked) [Example 6]
Emax [1, 2]: 43%
EC50 [1, 3]: 0.24 µM
Emax (rabbit right atria; [2]): 0%

CC(C)NCC(O)c1ccc(O)c(O)c1 (centres unmarked) [Isoprenaline, reference compound]
Emax [1, 2]: 100%
EC50 [1, 3]: 0.01 µM
Emax (rabbit right atria; [2]): 100%
EC50 (rabbit right atria): 0.003 µM
positive chronotropic effect (rabbit right atria): marked positive chronotropy in doses significantly lower than those producing positive inotropy

CCCCN1CCCC(c2cc(O)cc(O)c2)C1 (centres unmarked) [Example 5]
Emax [1, 4]: 42%
EC50 ([1]; Tested after β-blockade): 18.4 µM
Emax (rabbit right atria; [4]): 0%

CCCN1CCCC(c2cc(O)cc(O)c2)C1 (centres unmarked) [Example 1, 3=(3,5=Dihydroxyehenyl)N-n-eroeyleiperidine hydrobromide]
Emax [1, 2]: 30%
EC50 [1, 3]: 107 µM
Emax (rabbit right atria; [2]): 0%
positive chronotropic effect (rabbit right atria): no positive chronotropic effect

CN1CCCC(c2cc(O)cc(O)c2)C1 (centres unmarked) [Example 3, 3-(3,5-Dihydroxyphenl)-N-methlpiperidine]
Emax [1, 2]: 37%
EC50 [1, 3]: 11 µM
Emax (rabbit right atria; [2]): 0%

CC(C)N1CCCC(c2cc(O)cc(O)c2)C1 (centres unmarked) [Example 7]
Emax [1, 4]: 26%
EC50 ([1]; Tested after β-blockade): 43 µM
Emax (rabbit right atria; [4]): 0%

NCCc1ccc(O)c(O)c1 [Dopamine, reference compound]
Emax [1, 2]: 78%
EC50 [1, 3]: 19.7 µM
Emax (rabbit right atria; [2]): 91%
EC50 (rabbit right atria): 14.2 µM
positive chronotropic effect (rabbit right atria): marked positive chronotropic effect in doses which caused positive inotropy

CCN1CCCC(c2cc(O)cc(O)c2)C1 (centres unmarked) [Example 2, 3-(3,5-Dihydroxyehenyl)-N-ethylpiperidine hydrobromide]
Emax [1, 2]: 32%
EC50 [1, 3]: 298 µM
Emax (rabbit right atria; [2]): 0%
